US20240100105A1, “BACTERIOPHAGE TREATMENT FOR ACNE AND BIOFILMS” (priority 2017, published 2024)

Columns and labels:
[1] = test system: P. acnes PA1 biofilm; assay: Efficacy of phage mixtures on P. acnes biofilm; format: cell-based, Propionibacterium acnes; conditions: for Remaining log bacteria after phage or antibiotic treatment of biofilm: phage 10^5 total PFU, Erythromycin 100 μg/mL
Method: To test our phage against P. acnes biofilms, the following experiment is performed on biofilms produced in the laboratory. An overnight culture of PA1 is diluted 1:1 with fresh BHIS and incubated for 4 hours at 37° C. after which the culture is once again diluted 1:1 this time with anacrobized BHIS supplemented with 1% glucose (final conc. 0.5%). Next, a 96-well plate (Thermo Fisher Scientific, Waltham, Massachusetts) is seeded with 200 μL of the diluted culture per well. The wells are sealed using 8-well strip caps (Thermo Fisher Scientific, Waltham, Massachusetts). This is incubated for 3 days to let the biofilm form. After 72 hours, 10 μL of either mixture 1 (PAP-12, PA1-9 and PA1-13), mixture 2 (PA7-1, PA1-9 and PA1-13), mixture 3 (PAP-12, PA1-9, PA1-13 and PS7-1) or 2 μL of Erythromycin is added to the relevant wells. The amount of phage added per mixture corresponds to 10^5 total PFU while for the antibiotic Erythromycin, a final concentration of 100 μg/mL (enough to inhibit PA1 growth when not in a biofilm) is used.
At 24 hrs or 48 hrs post-treatment depending on the wells, the medium is carefully removed from each well and the remaining biofilm is picked from each well into a separate Eppendorf tube using a sterile tip. At this point, 1 mL of fresh BHIS is added to the biofilm tubes, sonicated to remove the phage inside for 5 minutes (Elmasonic S 100, at 37 kHz) (Elma Schmidbauer GmbH (Singen, Germany), and centrifuged (4 min, 4000 rpm, 25° C.). The supernatant containing the phage is carefully removed to a clean tube for quantification and the process was repeated a total of 3 times to make sure all phage are removed.
To quantify the surviving bacteria, the pellet is re-suspended in 100 μL BHIS, 10-fold serially diluted in BHIS and plated on BHIS agar plates. The plates are incubated for 72 hrs at 37° C. anaerobically after which the colonies are counted and results rounded to the nearest log. In parallel, the phage quantities inside the biofilm are tested by taking the supernatant set aside earlier, and using the aforementioned plaque assay to assess the original quantities.

[2] = test system: P. granulosum clinical isolates 2004-8, 2004-4 and 2002-1; assay: Spot/drop assay on clinical isolates of P. granulosum (2004-8, 2004-4 and 2002-1); format: cell-based; conditions: Clindamycin 1% gel ~10 μL; Erythromycin 20 μg/mL 5 μL, applied directly to bacterial lawn
Method: These bacterial strains show sensitivity to Clindamycin (1% gel, ˜10 μL) and Erythromycin (20 μg/mL, 5 μL) when the antibiotics are applied directly to a bacterial lawn of these strains, but are resistant to all the tested phage.

SMILES: CC[C@H]1OC(=O)[C@H](C)[C@@H](O[C@H]2C[C@@](C)(OC)[C@@H](O)[C@H](C)O2)[C@H](C)[C@@H](O[C@@H]2O[C@H](C)C[C@H](N(C)C)[C@H]2O)[C@](C)(O)C[C@@H](C)C(=O)[C@H](C)[C@@H](O)[C@]1(C)O [Erythromycin]
- Remaining log bacteria after phage or antibiotic treatment of biofilm ([1]; 24 hours post treatment): More than 9 Logs CFU
- Remaining log bacteria after phage or antibiotic treatment of biofilm ([1]; 48 hours post treatment): 8 Logs CFU
- decrease in bacterial counts in biofilm ([1]; after 24 hours): no visible decrease
- remaining bacteria per milliliter ([1]; after 48 hours): 8 logs
- response of P. granulosum isolates to antibiotics [2]: sensitivity
